Measurements published in US6498180B1, “Excitatory amino acid receptor modulators” (Eli Lilly and Company, priority 1999, dated 2002).

How the values were obtained:
animal model of anxiety = conditions: in vivo
mGluR3 [1] = target: T1, mGluR3 (Homo sapiens, UniProt Q14832); test: [3H] LY341495 binding at mGluR3; design: expressed in transfected cells; conditions: Example 1: average result from several tests, read-out: Ki, reversal of [3H] LY341495 binding at mGluR3
Excerpt: (D. D. Schoepp, et al., Neuropharmacol., 1996, 35, 1661-1672 and 1997, 36, 1-11).

mGluR3 [2] = target: T1, mGluR3; test: decrease of forskolin-stimulated cAMP in cells expressing mGluR3
Excerpt: The ability of compounds to function as agonists of glutamate at metabotropic glutamate receptors may be determined by measuring their ability to decrease forskolin-stimulated cAMP in cells expressing mGluR receptors.

T1 sequence (Q14832 23-879): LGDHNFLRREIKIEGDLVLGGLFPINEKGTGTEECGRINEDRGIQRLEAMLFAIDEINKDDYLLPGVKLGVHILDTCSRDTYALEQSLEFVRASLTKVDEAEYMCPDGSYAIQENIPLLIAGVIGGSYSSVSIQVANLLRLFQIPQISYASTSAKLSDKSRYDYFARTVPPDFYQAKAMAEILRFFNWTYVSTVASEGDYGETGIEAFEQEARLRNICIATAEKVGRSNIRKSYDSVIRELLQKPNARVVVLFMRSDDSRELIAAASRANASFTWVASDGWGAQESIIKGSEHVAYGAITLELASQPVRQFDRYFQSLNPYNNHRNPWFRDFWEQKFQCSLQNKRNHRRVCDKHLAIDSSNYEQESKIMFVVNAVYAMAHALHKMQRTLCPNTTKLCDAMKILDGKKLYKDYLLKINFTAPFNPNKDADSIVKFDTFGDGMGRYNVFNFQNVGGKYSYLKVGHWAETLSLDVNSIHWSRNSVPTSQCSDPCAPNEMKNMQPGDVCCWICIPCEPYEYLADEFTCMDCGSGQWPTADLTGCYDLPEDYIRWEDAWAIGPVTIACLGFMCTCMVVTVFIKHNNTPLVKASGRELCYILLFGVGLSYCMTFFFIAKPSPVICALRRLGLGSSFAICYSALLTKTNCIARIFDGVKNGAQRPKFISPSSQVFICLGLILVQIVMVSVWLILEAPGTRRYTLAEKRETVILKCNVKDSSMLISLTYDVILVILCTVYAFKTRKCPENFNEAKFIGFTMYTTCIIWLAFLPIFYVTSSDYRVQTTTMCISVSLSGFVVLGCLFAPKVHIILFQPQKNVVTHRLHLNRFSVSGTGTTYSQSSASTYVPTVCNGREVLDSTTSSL

melting point [°C]	SMILES	potency in an animal model of anxiety (animal model of anxiety)	Ki (mGluR3 [1]) [nM]	EC50 (mGluR3 [2]) [nM]
	N[C@H](C(=O)O)[C@H]1[C@@H](CO)[C@@H]1C(=O)O (racemic) [Example 1, (2SR,1′SR,2′RS,3′RS)-2-(3′-hydroxymethyl-2′-carboxycyclopropyl)glycine]	highly potent	7.9	11.5
200 to 202	N[C@H](C(=O)O)[C@H]1[C@@H](CS)[C@@H]1C(=O)O (racemic) [Example 3, (2SR,1′RS,2′RS,3′RS)-2-[3′-mercaptomethyl-2′-carboxycyclopropyl]glycine]			
201	N[C@H](C(=O)O)[C@H]1[C@@H](CSc2ccccc2)[C@@H]1C(=O)O (racemic) [Example 8, (2SR,1′RS,2′RS,3′RS)-2-[3′-(phenylthiomethyl)-2′-carboxycyclopropyl]glycine]			
	N[C@H](C(=O)O)[C@H]1[C@@H](CO)[C@@H]1C(=O)O (single isomer, unassigned) [Example 22]		5.1	
